Patent publication US6218365A, “Serine protease inhibitors” (Akzo Nobel N.V., priority 1996, dated 2001)

molecular target: T1, Human thrombin (Homo sapiens, UniProt P00734); assay: Anti-thrombin assay (hydrolysis of chromogenic substrate S-2238 by thrombin); format: biochemical; settings: final concentration causing 50% inhibition of the maximum absorbance of the blank; substrate S-2238, TNP buffer, 37° C.
T1 construct: purchased Centraal Laboratorium voor Bloedtransfusie, Amsterdam, The Netherlands
Experimental: Thrombin (Factor IIa) is a factor in the coagulation cascade. The anti-thrombin activity of compounds of the present invention was assessed by measring spectrophotometrically the rate of hydrolysis of the chromogenic substrate s-2238 exterted by thrombin. Ths assay for anti-thrombin activity in a buffer system was used to assess the IC50 -value of a test compound.
Test medium: Trometbine-NaCl-polyethylene glycol 6000 (TNP) buffer. Reference compomd: 12581 (Kabi) Vehicle: TNP buffer. Solubilisation can be assisted with dimethylsulphoxide, methanol, ethanol, acetonitrile or tert.-butyl alcohol which are without adverse effects in concentrations up to 2.5% in the final reaction mixture.
Reagents*: 1. Tromethamine-NaCl (TN) buffer. Composition of the buffer: Tromethaine (Tris) 6.057 g (50 mmol), NaCl 5.844 g (100 mmol), water to 1 l. The pH of the solution is adjusted to 7.4 at 37° C. with HCl (10 mmol·l^-1). 2. TNP buffer: Polyethylene glycol 6000 is dissolved in TN buffer to give a concentration of 3 g·l^-1 3. S-2238 solution: One vial S-2238 (25 mg; Kabi Diagnostica, Sweden) is dissolved in 20 ml TN buffer to give a concentration of 1.25 mg·ml^-1 (2 mmol l^-1). 4. Thrombin solution: Human thrombin (16 000 nKat·vial^-1; Centraal Laboratorium voor Bloedtransfusie, Amsterdam, The Netherlands) is dissolved in TNP buffer to give a stock solution of 835 nKat·ml^-1. Immediately before use this solution is diluted with TNP buffer to give a concentration of 3.34 nKat·ml^-1.
The test and reference compounds are dissolved in Milli-Q water to give stock concentrations of 10^-2 mol·l^31 1. Each concentration is stepwise diluted with the vehicle to give concentrations of 10^-3, 10^31 4 and 10^-5 mol·l^-1. The dilutions, including the stock solution, are used in the assay (fina concentrations in the reaction mixture: 3·10^-3; 10^31 3; […]; 3·10^-5; 10^-5; 3·10^-6 and 10^-6 mol·l^-1, respectively).
At room temperature 0.075 ml and 0.025 ml test compound or reference compound solutions or vehicle are alternately pipetted into the wells of a microtiter plate and these solutions are diluted with 0.115 ml and […] TNP buffer, respectively. An aliquot of 0.030 ml S-2238 solution is added to each well and the plate is preheated and pre-incubated with shaking in an incubator (Amersham) for 10 min. at 37° C. Following pre-incubation the hydrolysis of S-2238 is started by addition of 0.030 ml thrombin solution to each well. The plate is incubated (with shaking for 30 s) at 37° C. Starting after 1 min of incubation, the absorbance of each sample at 405 nm is measured every 2 min. for a period of 90 min. using a kinetic microtiter plate reader (Twinreader plus, Flow Laboratories).
All data are collected in an IBM personal computer using LOTUS-MEASURE. For each compound concentration (expressed in mol·l^-1 reaction mixture) and for the blank the absorbance is plotted versus the reaction time in min.
Evaluation of responses: For each final concentration the maximum absorbance was calculated from the assay plot. The IC50 -value (final concentration, expressed in μmol·l^-1, causing 50% inhibition of the maximum absorbance of the blank) was calculated using the logit transformation analysis according to Hafier et al. (Arzneim.-Forsch.ADrug Res. 1977; 27(II): 1871-3).

| Substance | IC50 [nM] |
| --- | --- |
| EthylSOx --D--Phe--Pr0--.PSI.[COCO]--NH2 [Example 38] | 1800 |
| HOOC--CH2 --D--Coa--Pro--Ppa--(2-thiazolyl) [Example 53] | 2600 |
| HOOC--CH2 --D--Phe--Pro--Ppa.PSI.[COCO]--OH [Example 3] | 540 |
| HOOC--CH2 --p--Cl--D--Phe--Pro--Ppa--(2-thiazolyl) [Example 47] | 2830 |

Continued by falling IC50, values first:

| IC50 [nM] | Substance |
| --- | --- |
| 950 | 3,3-Diphenyipropionyl--Pro--Ppa.PSI.[COCO]--OH [Example 15] |
| 245 | HOOC--CH2 --D--Cha--Pro--Ppa.PSI.[COCO]--NHMe [Example 31] |
